Assay results: patent US20040037775A1, “Leukocyte internalized peptide-drug conjugates” (priority 2000, published 2004)
Read-outs that look alike come from different tables or passages of the source. Starred links: 1 amine or outer side, 2 acyl side, 3 side chain; linkers in the order of their positions; H or OH if unused. Positions of bridges follow the written chain, without caps; N, C: chain ends. Non-standard residues stand in square brackets, D forms with d. Residues, ends and D or L forms follow the SMILES beside them. *: point of attachment. DAMPA = CN(Cc1cnc2nc(N)nc(N)c2n1)c1ccc(C(=O)*)cc1; γGlu = O=C(O)[C@H](CCC(=O)[*:2])N[*:1]; Pen = CC(C)(S)[C@H](N)C(=O)O

Key:
[1] = tested on: dihydrofolate reductase enzyme (DHFR); assay: DHFR inhibition assay (spectrophotometric NADPH loss, Dixon plots); format: biochemical; conditions: for Ymax: from Dixon plots
Procedure: Into a 2.0 mL cuvette, a 1.0 mL solution of 0.11 mM β-NADPH and 33 μL of 2.3 mM DHFA were aliquoted and allowed to equilibrate. […] To begin the assay, 33 μL of DHFR (0.12-0.25 unit/mL with 0.1% BSA) was added to the reaction mixture. The absorbance of the reaction mixture was then recorded continuously for 5 min at 340 nm and the enzyme activity was determined by the rate of NADPH loss. Enzyme activity was determined for three different fixed concentrations of substrate (0.19, 1.9 and 10.0 mM DHFA).

Molt-3 T-cells = assay: cells; format: cell-based, human
Procedure: (§1) The cytotoxicity of MTX-peptide conjugates was evaluated in different cell lines, lincluding Molt-3 and L1210 T-cells, and KB epithelial cells. […] After 72 h of growth, the relative numbers of viable cells were determined according to the manufacture's protocols for measuring cytotoxicity using a Dojindo Cytotoxicity Assay Cell counting Kit-8 (CCK-8). To measure the cell viability, 10 μL of CCK-8 was added to each well and the plate was incubated for 4 h. After incubation, the absorbance at 450 nm was measured using a UV plate reader. Cell growth in the presence of different drug concentrations was calculated relative to the value obtained in the absence of the drug. […] Serial dilutions of compounds were prepared in un-supplemented medium, and 110 μL of drug solution was aliquoted in duplicate into 900 μL cell suspensions. Control flasks were treated with 110 μL of un-supplemented medium. Cells were incubated under standard conditions for 48 h, sufficient to allow control cells to divide approximately four times. Growth inhibition was determined by counting the cells on a Z2 model Coulter Counter (Coulter Electronics Ltd, Luton, Beds, UK). The IC50 values were calculated using Graphpad Prism software (Graphpad Software, San Diego, Calif.). KB MTT Assay: KB cells were seeded in Falcons® 96 well plates (Becton-Dickinson Labware Europe, France) at a density of 1,500 cells/well in a volume of 0.18 mL culture medium and incubated under standard culture conditions for 24 h after seeding to allow entry into the exponential phase of cell growth. […] In each assay condition, control cells were treated with 20 μL of un-supplemented medium instead of drug. Cells were incubated for 96 h to allow control cells to divide approximately four times before cell viability was determined by MTT assay.

[2] = tested on: L1210 mouse leukemia cells; assay: cells; format: cell-based
Procedure: as §1

KB epithelial cells = assay: KB MTT assay (96 h); format: cell-based, human
Procedure: Human KB epithelial l cells: The human KB epithelial cell line was a gift from Dr Gerrit Jansen (University Free Hospital, Amsterdam, Netherlands) and was developed to overexpress the membrane folate binding protein (mFBP). Cells were cultured in RPMI 1640 medium without folic acid and supplemented with 10% heat inactivated dialyzed FCS (50 mL volume), 0.2 mL of 50 μg/mL gentamicin, 1 mL of 50 μg/mL amphotericin B, and 5 mL of 200 mM L-glutamine. The folate source, 20 nM (R,S)-LV, was added to supply cells with adequate growth conditions.
The cytotoxicity of MTX-peptide conjugates was evaluated in different cell lines, lincluding Molt-3 and L1210 T-cells, and KB epithelial cells. […] After 72 h of growth, the relative numbers of viable cells were determined according to the manufacture's protocols for measuring cytotoxicity using a Dojindo Cytotoxicity Assay Cell counting Kit-8 (CCK-8). To measure the cell viability, 10 μL of CCK-8 was added to each well and the plate was incubated for 4 h. After incubation, the absorbance at 450 nm was measured using a UV plate reader. Cell growth in the presence of different drug concentrations was calculated relative to the value obtained in the absence of the drug. […] Growth inhibition was determined by counting the cells on a Z2 model Coulter Counter (Coulter Electronics Ltd, Luton, Beds, UK). The IC50 values were calculated using Graphpad Prism software (Graphpad Software, San Diego, Calif.). […] Cells were incubated for 96 h to allow control cells to divide approximately four times before cell viability was determined by MTT assay.
The number of viable cells after a 96-h incubation was determined by assessing their ability to reduce MTT ([…]). […] The absorbance of the solution in each well was measured at 540 nm on a MCC/340 model Titertak Multiscan® plate reader (Labsystems/Flow Laboratories, Oxfordshire, UK). The results were analyzed using Ascent Research software v.2.1 (Labsystems, UK).

L1210-1565 cells = assay: cell cycle analysis in L1210-1565 cells (PI staining, flow cytometry); format: cell-based, mouse; conditions: 1 μM
Procedure: The cell pellets were resuspended and fixed in 2.5 mL of ice-cold 70% ethanol. These pellets were stored at 4° C. before analysis using flow cytometry.
PI staining of fixed cell pellets for cell cycle analysis: One day prior to analysis, cells were centrifuged at 450×g (2500 rpm) for 5 min at room temperature and the pellets re-suspended in 0.8 mL PBS followed by addition of 0.1 mL each of 1 mg/mL ribonuclease A (RNase A; Sigma) and 0.4 mg/mL PI (Sigma). RNA digestion by RNase A is required to avoid the intercalation of PI into the double-stranded regions of this nucleic acid, which interfers with the measurement of DNA. After a 30 min incubation at 37° C., samples were wrapped in aluminum foil and stored at 4° C. overnight. Cell cycle analysis was performed using a Coulter EPICS Elite ESP (Beckman Coulter, Buckinghamshire, UK) equipped with an argon-ion laser tuned to 488 nm and red fluorescence collected at 630 nm. DNA histograms were produced and analyzed using the Winmidi software package (v.2.8, written by J.Trotter, University of Cardiff, UK).

IL-6 production = IL-6 production in TNF-α stimulated HCAEC monolayers; format: cell-based; conditions: 0.001-100 μM, 24 h
Procedure: The cell monolayers were cultured in vitro with the test compounds (0.001 to 100 μM) in the presence of TNF-α for 24 h. Results are expressed as the percentage of cytokine relative to the positive control or non-treated monolayers (the baseline 100% cytokine production. The control levels (mean±SE) were as follows: IL-6: 3.4±0.17 ng/mL, IL-8: 199.5±9.13 ng/mL.
It is well known that some anti-inflammatory agents can modulate the secretion of inflammatory cytokines. […] MTX-peptide(s) only begins to effectively reduce the IL-8 production at ≧0.1 μM. At ≦1 μM, neither cLAB.L nor cLBE.L affected the IL-8 production (FIG. 8B).

[3] = tested on: collagen induced rheumatoid arthritis (CIA); assay: collagen induced rheumatoid arthritis (CIA) animal model; format: in vivo, mice; conditions: for mice showing signs of joint eburnation: histopathologic examination; for Total joint damage (TJD): sum of histopathology scores (0 to 3) for each limb; for arthritis index score for the limb: i.v. once daily after day 35
Procedure: […] received intravenous injections of saline while another treatment group received MTX injections (molar equivalent dosage to conjugate) for five days. Clinical arthritis symptoms were evaluated weekly for up to sixteen weeks. Arthritis development was evaluated by several parameters, including the percent of animals acquiring arthritis, arthritis index (AI) score of limbs, changes in paw-volumes and histologic score for the joint.
Mice injected with collagen adjuvant developed pronounced inflammation of the joints, as evidenced by swelling and erythema. […] Total joint damage (TJD) was calculated as the sum the scores for each limb assigned by the pathologist on a scale of 0 to 3 (where 0 is no change and 3 is gross histological change).

LFA-1 = molecular target: T1, LFA-1 (Homo sapiens, UniProt P20701); assay: binding to LFA-1 on Molt-3 T-cells (reduction of FITC anti-CD11a antibody binding, flow cytometry); conditions: 1, 10 or 100 μM, 45 min, 4° C.
T1 construct: endogenous in cells
T1 sequence (P20701 26-1170): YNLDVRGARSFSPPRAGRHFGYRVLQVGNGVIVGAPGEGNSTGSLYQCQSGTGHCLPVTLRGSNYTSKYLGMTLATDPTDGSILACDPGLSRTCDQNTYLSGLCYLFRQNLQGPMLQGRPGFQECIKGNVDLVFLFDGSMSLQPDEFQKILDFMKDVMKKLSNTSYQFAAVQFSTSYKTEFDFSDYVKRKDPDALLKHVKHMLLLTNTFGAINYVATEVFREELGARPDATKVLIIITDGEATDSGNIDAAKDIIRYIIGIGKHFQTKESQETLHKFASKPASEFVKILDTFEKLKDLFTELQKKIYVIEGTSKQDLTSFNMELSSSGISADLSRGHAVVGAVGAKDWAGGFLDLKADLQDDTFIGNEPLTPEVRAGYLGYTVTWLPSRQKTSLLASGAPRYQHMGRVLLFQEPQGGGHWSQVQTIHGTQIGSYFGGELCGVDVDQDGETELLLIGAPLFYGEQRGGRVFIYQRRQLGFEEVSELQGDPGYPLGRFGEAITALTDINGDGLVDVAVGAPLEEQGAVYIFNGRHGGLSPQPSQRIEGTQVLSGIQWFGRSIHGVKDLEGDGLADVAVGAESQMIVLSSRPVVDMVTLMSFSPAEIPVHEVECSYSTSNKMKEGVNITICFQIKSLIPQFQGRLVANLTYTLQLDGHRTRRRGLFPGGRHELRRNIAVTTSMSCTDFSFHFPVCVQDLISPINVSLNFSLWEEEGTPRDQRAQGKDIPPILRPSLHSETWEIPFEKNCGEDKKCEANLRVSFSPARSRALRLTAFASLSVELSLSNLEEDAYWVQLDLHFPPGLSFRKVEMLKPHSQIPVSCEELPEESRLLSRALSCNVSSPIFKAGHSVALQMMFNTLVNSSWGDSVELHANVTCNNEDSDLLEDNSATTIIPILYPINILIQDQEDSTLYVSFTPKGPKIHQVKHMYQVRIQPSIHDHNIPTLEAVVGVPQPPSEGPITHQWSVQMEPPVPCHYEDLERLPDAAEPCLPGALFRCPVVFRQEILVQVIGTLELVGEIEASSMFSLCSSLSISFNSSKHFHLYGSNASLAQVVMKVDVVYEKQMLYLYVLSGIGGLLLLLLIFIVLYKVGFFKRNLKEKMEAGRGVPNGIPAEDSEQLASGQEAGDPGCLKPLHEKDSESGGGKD
T1 sequence (P05107 23-769 partner): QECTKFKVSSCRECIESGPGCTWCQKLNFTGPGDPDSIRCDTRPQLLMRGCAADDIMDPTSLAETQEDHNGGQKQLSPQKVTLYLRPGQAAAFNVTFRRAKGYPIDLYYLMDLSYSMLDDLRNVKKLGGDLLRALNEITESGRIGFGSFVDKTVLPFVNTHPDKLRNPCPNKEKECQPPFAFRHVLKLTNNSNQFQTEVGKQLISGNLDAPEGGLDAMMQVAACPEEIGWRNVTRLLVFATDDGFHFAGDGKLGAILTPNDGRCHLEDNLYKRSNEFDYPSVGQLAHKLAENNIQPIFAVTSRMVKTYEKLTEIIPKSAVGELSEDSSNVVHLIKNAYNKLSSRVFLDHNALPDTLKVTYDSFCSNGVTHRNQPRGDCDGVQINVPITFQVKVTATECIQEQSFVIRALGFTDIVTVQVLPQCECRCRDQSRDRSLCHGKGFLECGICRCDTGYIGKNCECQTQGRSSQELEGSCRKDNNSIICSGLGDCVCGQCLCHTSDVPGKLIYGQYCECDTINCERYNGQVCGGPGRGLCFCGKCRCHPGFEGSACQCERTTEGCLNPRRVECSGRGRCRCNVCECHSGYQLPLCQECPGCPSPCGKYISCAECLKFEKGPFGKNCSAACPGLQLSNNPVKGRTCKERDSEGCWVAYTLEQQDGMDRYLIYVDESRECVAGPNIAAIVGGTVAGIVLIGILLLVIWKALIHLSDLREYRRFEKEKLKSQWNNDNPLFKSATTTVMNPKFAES
Procedure: The binding of MTX-peptide conjugates to LFA-1 in response to LFA-1 activation was evaluated. As necessary, cells were activated with 10% v/v phorbol 12-myristate-13-acetate (PMA) containing medium to a final concentration of 2 μM PMA and incubated for 16 h. […] T-cells were centrifuged for 3 min at 1800 rpm, the supernatant was decanted by flicking off excess liquid, and the cells were re-suspended in 500 μL of PBS. The cells were then re-centrifuged, supernatant was removed, and cells were re-suspended again in 150 μL of PBS/BSA 1%. Next, 50 μL of an FITC-labeled anti-CD11a antibody (clone 38, 10 μg/L) was added and incubated for 45 min at 4° C. followed by washing. After the 45 min of incubation with FITC-labeled antibody, cell samples were transferred to Eppendorf tubes and centrifuged at 3000 g for 3 min. The supernatant was decanted, and the pellet was washed twice with 10 mM HEPES/PBS. The cells were then fixed with ice-cold 2% w/v paraformaldehyde/PBS for 20 min. Samples were analyzed using a Becton-Dickinson FACScan flow cytometer with 3.2.1 fl software for data analysis and acquisition.

Thymidine synthase (TS) = molecular target: T2, Thymidine synthase (TS) (Mus musculus, UniProt P07607); format: cell-based
T2 construct: endogenous in cells; host or cells: L1210-1565 mouse leukemia cells
T2 sequence (P07607 whole entry): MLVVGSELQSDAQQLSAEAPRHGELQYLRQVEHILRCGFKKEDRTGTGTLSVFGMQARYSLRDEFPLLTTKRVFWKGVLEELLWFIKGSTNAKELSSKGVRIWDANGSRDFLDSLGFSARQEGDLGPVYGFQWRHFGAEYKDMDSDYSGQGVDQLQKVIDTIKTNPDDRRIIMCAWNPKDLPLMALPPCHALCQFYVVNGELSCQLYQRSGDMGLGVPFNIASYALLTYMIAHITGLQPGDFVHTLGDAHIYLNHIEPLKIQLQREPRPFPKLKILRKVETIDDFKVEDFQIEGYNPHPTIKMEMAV
Procedure: An equivalent amount of unsupplemented medium was added to control flasks. On the day of each experiment, a fresh solution of unlabelled deoxyuridine (dUrd) was prepared in deionized H2O (dH2O) and was added to a stock solution of [5-^3H]-dUrd (22 Ci/mmole) to give a concentration of 300 μM and a specific activity of 3.3 Ci/mmole (˜7260 dpm/pmole).
To begin the assay, the 300 μM [5-^3H]-dUrd stock solution was diluted ten fold in deionized H2O and 50 μL of this solution was added to each culture flask to give a final concentration of 0.03 μM. The rate of ^3H2O formation was measured over a 1 h period (20, 40 and 60 min) by removing a 3×0.4 mL aliquot of the cells in culture medium and mixing it with 0.4 mL of ice-cold 1.0 M perchloric acid (PCA; Sigma) in microfuge tubes. […] For each time point, radioactivity was determined by counting each vial on the tritium channel of a Tri-Carb 2000CA Model Liquid Scintillation Analyzer (Canberra Packard, Pangbourne, Berkshire, UK). Background radioactivity was assessed by cooling a flask of untreated cells on ice before the start of each experiment and adding 50 mL of the [5-^3H]-dUrd solution. Aliquots of 3×0.4 mL aliquots of cells in culture medium were added to 1.0 M PCA-containing microfuge tubes and the rate of ^3H2O release was analyzed as described above. […]

Compound | Ymax [1] | IC50 (Molt-3 T-cells; Homo sapiens, MOLT-3, 72 h, read-out: IC50 Molt-3 T-cells) | IC50 ([2]; Mus musculus, L1210, 48 h, read-out: IC50 L1210 mouse leukemia cells) | IC50 (KB epithelial cells; Homo sapiens, Epithelial cell) | time of treatment after which arrest of cells in S phase was seen (L1210-1565 cells) | block of IL-6 production (IL-6 production) | mice showing signs of joint eburnation [3] | Total joint damage (TJD) [3] | Km relative to that of MTX [1] | IC50 (Molt-3 T-cells; 72 h) | IC50 ([2]; 48 h) | IC50 (KB epithelial cells) | binding to the LFA-1 receptor (LFA-1) | ability to inhibit TS after wash-out (Thymidine synthase (TS)) | inhibition of 3H2O production by TS, continuous exposure (Thymidine synthase (TS); 3 μM, 4 h incubation) | arthritis index score for the limb ([3]; week 8) | arthritis index score for the limb ([3]; week 12)
CN(Cc1cnc2nc(N)nc(N)c2n1)c1ccc(C(=O)N[C@@H](CCC(=O)O)C(=O)O)cc1 [MTX, methotrexate, reference compound] | 4.30 ± 0.42 × 10^−4 | 61 ± 20 nM | 14 ± 4 nM | 27 nM | 24 h | partly block the production of IL-6 | 44% | 7.4±2.5 |  |  |  |  |  |  |  |  | 
CC(C)C[C@@H]1NC(=O)[C@H](C(C)C)NC(=O)[C@H](CO)NC(=O)CNC(=O)CNC(=O)[C@H](CCCNC(=N)N)NC(=O)[C@@H]2CCCN2C(=O)[C@@H](NC(=O)CC[C@H](NC(=O)c2ccc(N(C)Cc3cnc4nc(N)nc(N)c4n3)cc2)C(=O)O)C(C)(C)SSC[C@@H](C(=O)O)NC(=O)CNC(=O)[C@H]([C@@H](C)O)NC(=O)[C@H](C(C)C)NC1=O [MTX-cIBR] ({DAMPA-γGlu}-[Pen]PRGGSVLVTGC-OH; disulfide 1-12) | 4.10 ± 0.18 × 10^−4 |  |  |  | 36 h |  | 10% | 4.4±2.1 | ~15 fold | 2750 ± 800 nM | 5500 ± 2000 nM | > 10000 nM | specific to the LFA-1 receptor | retained more activity than the linear conjugate | inhibited to a similar degree | two | zero
